Assay results taken from patent US20230081426A1, “COMPOUNDS AND METHODS FOR KRAS MODULATION AND INDICATIONS THEREFOR” (Plexxikon Inc., priority 2020, published 2023).

Tests used:
[1] = target: T1, G12D-mutant human KRAS (amino acid residues 1-188) (Homo sapiens, UniProt P01116, G12D); assay: KRAS Binding Disruption Assay (AlphaScreen; biotinylated KRpep-2d analogue or RAF1-RBD), G12D; conditions: KRAS G12D; geometric mean; read-out: KRAS GMean IC50 (uM) MUTATION: G12D
T1 construct: G12D or G12C-mutant human KRAS (amino acid residues 1-188) with FLAG tag; made in house; host or cells: E. coli
Outline: (§1)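 AlphaScreen readout: signal falls as compound displaces biotinylated KRpep-2d analogue or RAF1-RBD from mutant KRAS. Both partners at 5-20 nM, 1 h binding at 25° C, then 10 μg/mL Anti-Flag acceptor and streptavidin donor beads for 1 h. IC50 by nonlinear regression of % inhibition.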

[2] = target: T2, G12C-mutant human KRAS (amino acid residues 1-188) (Homo sapiens, UniProt P01116, G12C); assay: KRAS Binding Disruption Assay (AlphaScreen; biotinylated KRpep-2d analogue or RAF1-RBD), G12C; conditions: geometric mean, read-out: KRAS GMean IC50 (uM) MUTATION: G12C
T2 construct: G12D or G12C-mutant human KRAS (amino acid residues 1-188) with FLAG tag; made in house; host or cells: E. coli
Outline: as §1

T1 sequence (P01116 1-188 isoform P01116-2 G12D): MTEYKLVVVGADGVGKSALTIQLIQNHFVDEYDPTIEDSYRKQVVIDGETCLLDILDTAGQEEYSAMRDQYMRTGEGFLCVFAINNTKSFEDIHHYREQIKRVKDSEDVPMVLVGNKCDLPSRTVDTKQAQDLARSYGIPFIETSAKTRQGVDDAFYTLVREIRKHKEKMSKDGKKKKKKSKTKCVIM
T2 sequence (P01116 1-188 isoform P01116-2 G12C): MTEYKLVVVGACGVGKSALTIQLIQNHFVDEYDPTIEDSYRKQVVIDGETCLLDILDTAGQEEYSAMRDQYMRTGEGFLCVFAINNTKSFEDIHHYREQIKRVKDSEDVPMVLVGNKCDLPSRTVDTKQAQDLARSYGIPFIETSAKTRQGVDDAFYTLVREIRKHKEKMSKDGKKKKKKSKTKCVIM

Row | SMILES | IC50 [1] [µM] | IC50 [2] [µM]
1 | CN1CCC[C@H]1COc1nc(N2C[C@H]3CC[C@@H](C2)N3)c2cc(F)c(-c3cn(C)c4ccccc34)c(F)c2n1 [P-0801, 4-((1R,5S)-3,8-diazabicyclo[3.2.1]octan-3-yl)-6,8-difluoro-7-(1-methyl-1H-indol-3-yl)-2-(((S)-1-methylpyrrolidin-2-yl)methoxy)quinazoline] | 10 to 100 | 100 to 1000
2 | Oc1cc(-c2ccc3c(N4C[C@H]5CC[C@@H](C4)N5)nc(CN[C@H]4CCOC4)nc3c2)c2ccccc2c1 [P-0671, 4-(4-((1R,5S)-3,8-diazabicyclo[3.2.1]octan-3-yl)-2-((((S)-tetrahydrofuran-3-yl)amino)methyl)quinazolin-7-yl)naphthalen-2-ol] | 0.0001 to 10 | 10 to 100
3 | O=C(NCCCN1CCC[C@H]1COc1nc(N2C[C@H]3CC[C@@H](C2)N3)c2ccc(-c3cc(O)cc4ccccc34)c(F)c2n1)OCc1ccccc1 [P-0676, benzyl (3-((S)-2-(((4-((1R,5S)-3,8-diazabicyclo[3.2.1]octan-3-yl)-8-fluoro-7-(3-hydroxynaphthalen-1-yl)quinazolin-2-yl)oxy)methyl)pyrrolidin-1-yl)propyl)carbamate] | 0.0001 to 10 | 10 to 100
4 | CS(=O)(=O)NC1CN(c2nc(N3C[C@H]4CC[C@@H](C3)N4)c3ccc(-c4cc(O)cc5ccccc45)c(F)c3n2)C1 [P-0702, N-(1-(4-((1R,5S)-3,8-diazabicyclo[3.2.1]octan-3-yl)-8-fluoro-7-(3-hydroxynaphthalen-1-yl)quinazolin-2-yl)azetidin-3-yl)methanesulfonamide] | 0.0001 to 10 | 10 to 100
5 | Oc1cc(-c2ccc3c(N4C[C@H]5CC[C@@H](C4)N5)nc(OCC4(O)CCCC4)nc3c2F)c2ccccc2c1 [P-0721, 4-(4-((1R,5S)-3,8-diazabicyclo[3.2.1]octan-3-yl)-8-fluoro-2-((1-hydroxycyclopentyl)methoxy)quinazo-lin-7-yl)naphthalen-2-ol] | 0.0001 to 10 | 10 to 100
6 | NC1CN(c2nc(N3C[C@H]4CC[C@@H](C3)N4)c3ccc(-c4cc(O)cc5ccccc45)c(F)c3n2)C1 [P-0793, 4-(2-(3-aminoazetidin-1-yl)-4-((1R,5S)-3,8-diazabicyclo[3.2.1]octan-3-yl)-8-fluoroquinazolin-7-yl)naphthalen-2-ol] | 0.0001 to 10 | 10 to 100
7 | Oc1cc(-c2ccc3c(N4C[C@H]5CC[C@@H](C4)N5)nc(OCC4CCCC4)nc3c2F)c2ccccc2c1 [P-0810, 4-(4-((1R,5S)-3,8-diazabicyclo[3.2.1]octan-3-yl)-2-(cyclopentylmethoxy)-8-fluoroquinazolin-7-yl)naphthalen-2-ol] | 0.0001 to 10 | 10 to 100
8 | FC(F)(F)c1cccc2[nH]cc(-c3ccc4c(N5C[C@H]6CC[C@@H](C5)N6)nc(OCC56CCCN5CCC6)nc4c3)c12 [P-0711, 4-((1R,5S)-3,8-diazabicyclo[3.2.1]octan-3-yl)-2-((tetrahydro-1H-pyrrolizin-7a(5H)-yl)methoxy)-7-(4-(trifluoromethyl)-1H-indol-3-yl)quinazoline] | 0.0001 to 10 | 0.0001 to 10
9 | Oc1cc(-c2ccc3c(N4C[C@H]5CC[C@@H](C4)N5)nc(OC4CCC(O)CC4)nc3c2F)c2ccccc2c1 (stereo partly drawn) [P-0787, 4-(4-((1R,5S)-3,8-diazabicyclo[3.2.1]octan-3-yl)-8-fluoro-2-((4-hydroxycyclohexyl)oxy)quinazolin-7-yl)naphthalen-2-ol] | 0.0001 to 10 | 10 to 100
10 | Oc1cc(-c2ccc3c(N4C[C@H]5CC[C@@H](C4)N5)nc(OCC4CCC(F)(F)C4)nc3c2F)c2ccccc2c1 (stereo partly drawn) [P-0738, 4-(4-((1R,5S)-3,8-diazabicyclo[3.2.1]octan-3-yl)-2-((3,3-difluorocyclopentyl)methoxy)-8-fluoroquinazolin-7-yl)naphthalen-2-ol] | 0.0001 to 10 | 10 to 100
11 | Oc1cc(-c2ccc3c(N4C[C@H]5CC[C@@H](C4)N5)nc(N4CC(N5CCOCC5)C4)nc3c2F)c2ccccc2c1 [P-0703, 4-(4-((1R,5S)-3,8-diazabicyclo[3.2.1]octan-3-yl)-8-fluoro-2-(3-morpholinoazetidin-1-yl)quinazolin-7-yl)naphthalen-2-ol] | 0.0001 to 10 | 10 to 100

The remaining lines, values ahead:

Row | IC50 [1] [µM] | IC50 [2] [µM] | SMILES
12 | 0.0001 to 10 | 10 to 100 | CCN(CC)C1CN(c2nc(N3C[C@H]4CC[C@@H](C3)N4)c3ccc(-c4cc(O)cc5ccccc45)c(F)c3n2)C1 [P-0637, 4-(4-((1R,5S)-3,8-diazabicyclo[3.2.1]octan-3-yl)-2-(3-(diethylamino)azetidin-1-yl)-8-fluoroquinazolin-7-yl)naphthalen-2-ol]
13 | 0.0001 to 10 | 0.0001 to 10 | Fc1ccc2[nH]cc(-c3ccc4c(N5C[C@H]6CC[C@@H](C5)N6)nc(OCC56CCCN5CCC6)nc4c3F)c2c1Cl [P-0678, 4-((1R,5S)-3,8-diazabicyclo[3.2.1]octan-3-yl)-7-(4-chloro-5-fluoro-1H-indol-3-yl)-8-fluoro-2-((tetrahydro-1H-pyrrolizin-7a(5H)-yl)methoxy)quinazoline]
14 | 0.0001 to 10 | 10 to 100 | Oc1cc(-c2ccc3c(N4C[C@H]5CC[C@@H](C4)N5)nc(OC[C@@H]4CCCN4)nc3c2F)c2ccccc2c1 [P-0714, 4-(4-((1R,5S)-3,8-diazabicyclo[3.2.1]octan-3-yl)-8-fluoro-2-(((S)-pyrrolidin-2-yl)methoxy)quinazolin-7-yl)naphthalen-2-ol]
15 | 0.0001 to 10 | 0.0001 to 10 | Cc1cccc2[nH]cc(-c3c(F)cc4c(N5C[C@H]6CC[C@@H](C5)N6)nc(OCC56CCCN5CCC6)nc4c3F)c12 [P-0790, 4-((1R,5S)-3,8-diazabicyclo[3.2.1]octan-3-yl)-6,8-difluoro-7-(4-methyl-1H-indol-3-yl)-2-((tetrahydro-1H-pyrrolizin-7a(5H)-yl)methoxy)quinazoline]
16 | 0.0001 to 10 | 0.0001 to 10 | Fc1cc2c(N3C[C@H]4CC[C@@H](C3)N4)nc(OCC34CCCN3CCC4)nc2c(F)c1-c1c[nH]c2ccc(F)c(Cl)c12 [P-0679, 4-((1R,5S)-3,8-diazabicyclo[3.2.1]octan-3-yl)-7-(4-chloro-5-fluoro-1H-indol-3-yl)-6,8-difluoro-2-((tetrahydro-1H-pyrrolizin-7a(5H)-yl)methoxy)quinazoline]
17 | 0.0001 to 10 | 0.0001 to 10 | Fc1cc2c(N3C[C@H]4CC[C@@H](C3)N4)nc(OCC34CCCN3CCC4)nc2c(F)c1-c1c[nH]c2cccc(C(F)(F)F)c12 [P-0737, 4-((1R,5S)-3,8-diazabicyclo[3.2.1]octan-3-yl)-6,8-difluoro-2-((tetrahydro-1H-pyrrolizin-7a(5H)-yl)methoxy)-7-(4-(trifluoromethyl)-1H-indol-3-yl)quinazoline]
18 | 0.0001 to 10 | 0.0001 to 10 | CCc1cc2c(N3C[C@H]4CC[C@@H](C3)N4)nc(OC[C@@H]3CCCN3C)nc2c(F)c1-c1cc(O)cc2ccccc12 [P-0013, 4-(4-((1R,5S)-3,8-diazabicyclo[3.2.1]octan-3-yl)-6-ethyl-8-fluoro-2-(((S)-1-methylpyrrolidin-2-yl)methoxy)quinazolin-7-yl)naphthalen-2-ol]
19 | 0.0001 to 10 | 10 to 100 | Oc1cc(-c2ccc3c(N4C[C@H]5CC[C@@H](C4)N5)nc(OCC4CCCC4(F)F)nc3c2F)c2ccccc2c1 (stereo partly drawn) [P-0739, 4-(4-((1R,5S)-3,8-diazabicyclo[3.2.1]octan-3-yl)-2-((2,2-difluorocyclopentyl)methoxy)-8-fluoroquinazolin-7-yl)naphthalen-2-ol]
